# Laboratory results reported in ChEMBL document CHEMBL4270577, “Synthesis, anticancer activity and molecular modeling studies of 1,2,4-triazole derivatives as EGFR inhibitors” (Eur J Med Chem, 2018).
# pIC50: −log10 of the molar value.
# Key:
# NCI-H460 = test: Antiproliferative activity against human H460 cells after 48 hrs by propidium iodide staining-based fluorometric analysis; type: functional, cell-based; settings: NCI-H460, 48 h
# NCI-H23 = test: Growth inhibition of human NCI-H23 cells at 10 uM incubated for 48 hrs by sulforhodamine B assay relative to control; type: functional; settings: NCI-H23, 48 h, read-out: GI
# CCRF-CEM = test: Growth inhibition of human CCRF-CEM cells at 10 uM incubated for 48 hrs by sulforhodamine B assay relative to control; type: functional; settings: read-out: GI
# PC-3 = test: Growth inhibition of human PC3 cells at 10 uM incubated for 48 hrs by sulforhodamine B assay relative to control; type: functional; settings: PC-3, 48 h, read-out: GI
# NCI-H522 = test: Growth inhibition of human NCI-H522 cells at 10 uM incubated for 48 hrs by sulforhodamine B assay relative to control; type: functional; settings: NCI-H522, 48 h, read-out: GI
# PANC-1 = test: Antiproliferative activity against human PANC1 cells after 48 hrs by propidium iodide staining-based fluorometric analysis; type: functional, cell-based; settings: PANC-1, 48 h
# TK-10 = test: Growth inhibition of human TK10 cells at 10 uM incubated for 48 hrs by sulforhodamine B assay relative to control; type: functional; settings: TK-10, 48 h, read-out: GI
# HT-29 [1] = test: Growth inhibition of human HT-29 cells at 10 uM incubated for 48 hrs by sulforhodamine B assay relative to control; type: functional; settings: HT-29, 48 h, read-out: GI
# SK-MEL-2 = test: Growth inhibition of human SK-MEL-2 cells at 10 uM incubated for 48 hrs by sulforhodamine B assay relative to control; type: functional; settings: SK-MEL-2, 48 h, read-out: GI
# SR = test: Growth inhibition of human SR cells at 10 uM incubated for 48 hrs by sulforhodamine B assay relative to control; type: functional; settings: read-out: GI
# HL-60(TB) = test: Growth inhibition of human HL-60(TB) cells at 10 uM incubated for 48 hrs by sulforhodamine B assay relative to control; type: functional; settings: HL-60, 48 h, read-out: GI
# UACC-62 = test: Growth inhibition of human UACC62 cells at 10 uM incubated for 48 hrs by sulforhodamine B assay relative to control; type: functional; settings: UACC-62, 48 h, read-out: GI
# NCI-H322M = test: Growth inhibition of human NCI-H322M cells at 10 uM incubated for 48 hrs by sulforhodamine B assay relative to control; type: functional; settings: read-out: GI
# A549 = test: Growth inhibition of human A549/ATCC cells at 10 uM incubated for 48 hrs by sulforhodamine B assay relative to control; type: functional; settings: A549, 48 h, read-out: GI
# UO-31 = test: Growth inhibition of human UO31 cells at 10 uM incubated for 48 hrs by sulforhodamine B assay relative to control; type: functional; settings: UO-31, 48 h, read-out: GI
# MIA PaCa-2 = test: Antiproliferative activity against human MIAPaCa2 cells after 48 hrs by propidium iodide staining-based fluorometric analysis; type: functional, cell-based; settings: MIA PaCa-2, 48 h
# SNB-75 = test: Growth inhibition of human SNB75 cells at 10 uM incubated for 48 hrs by sulforhodamine B assay relative to control; type: functional; settings: SNB-75, 48 h, read-out: GI
# HT-29 [2] = test: Antiproliferative activity against human HT-29 cells after 48 hrs by propidium iodide staining-based fluorometric analysis; type: functional, cell-based; settings: HT-29, 48 h
# MOLT-4 = test: Growth inhibition of human MOLT4 cells at 10 uM incubated for 48 hrs by sulforhodamine B assay relative to control; type: functional; settings: MOLT-4, 48 h, read-out: GI
# HOP-62 = test: Growth inhibition of human HOP62 cells at 10 uM incubated for 48 hrs by sulforhodamine B assay relative to control; type: functional; settings: HOP-62, 48 h, read-out: GI
# RPMI-8226 = test: Growth inhibition of human RPMI8226 cells at 10 uM incubated for 48 hrs by sulforhodamine B assay relative to control; type: functional; settings: RPMI-8226, 48 h, read-out: GI
# UACC-257 = test: Growth inhibition of human UACC257 cells at 10 uM incubated for 48 hrs by sulforhodamine B assay relative to control; type: functional; settings: UACC-257, 48 h, read-out: GI
# U-251 = test: Growth inhibition of human U251 cells at 10 uM incubated for 48 hrs by sulforhodamine B assay relative to control; type: functional; settings: U-251, 48 h, read-out: GI
# NCI-H226 = test: Growth inhibition of human NCI-H226 cells at 10 uM incubated for 48 hrs by sulforhodamine B assay relative to control; type: functional; settings: NCI-H226, 48 h, read-out: GI
# SK-OV-3 = test: Growth inhibition of human SKOV3 cells at 10 uM incubated for 48 hrs by sulforhodamine B assay relative to control; type: functional; settings: SK-OV-3, 48 h, read-out: GI
# HCT-116 = test: Growth inhibition of human HCT116 cells at 10 uM incubated for 48 hrs by sulforhodamine B assay relative to control; type: functional; settings: HCT-116, 48 h, read-out: GI
# OVCAR-8 = test: Growth inhibition of human OVCAR8 cells at 10 uM incubated for 48 hrs by sulforhodamine B assay relative to control; type: functional; settings: OVCAR-8, 48 h, read-out: GI
# T47D = test: Growth inhibition of human T47D cells at 10 uM incubated for 48 hrs by sulforhodamine B assay relative to control; type: functional; settings: read-out: GI
# HOP-92 = test: Growth inhibition of human HOP92 cells at 10 uM incubated for 48 hrs by sulforhodamine B assay relative to control; type: functional; settings: HOP-92, 48 h, read-out: GI
# SNB-19 = test: Growth inhibition of human SNB19 cells at 10 uM incubated for 48 hrs by sulforhodamine B assay relative to control; type: functional; settings: SNB-19, 48 h, read-out: GI
# A498 = test: Growth inhibition of human A498 cells at 10 uM incubated for 48 hrs by sulforhodamine B assay relative to control; type: functional; settings: A498, 48 h, read-out: GI
# Hs-578T = test: Growth inhibition of human Hs 578T cells at 10 uM incubated for 48 hrs by sulforhodamine B assay relative to control; type: functional; settings: read-out: GI
# MCF7 = test: Growth inhibition of human MCF7 cells at 10 uM incubated for 48 hrs by sulforhodamine B assay relative to control; type: functional; settings: MCF7, 48 h, read-out: GI
SMILES,pIC50 (NCI-H460),inhibition of growth at 10 µM (CCRF-CEM) [%],inhibition of growth at 10 µM (PC-3) [%],inhibition of growth at 10 µM (NCI-H522) [%],pIC50 (PANC-1),inhibition of growth at 10 µM (HT-29 [1]) [%],inhibition of growth at 10 µM (SK-MEL-2) [%],inhibition of growth at 10 µM (SR) [%],inhibition of growth at 10 µM (HL-60(TB)) [%],inhibition of growth at 10 µM (A549) [%],inhibition of growth at 10 µM (UO-31) [%],pIC50 (MIA PaCa-2),inhibition of growth at 10 µM (SNB-75) [%],pIC50 (HT-29 [2]),inhibition of growth at 10 µM (MOLT-4) [%],inhibition of growth at 10 µM (HOP-62) [%],inhibition of growth at 10 µM (UACC-257) [%],inhibition of growth at 10 µM (U-251) [%],inhibition of growth at 10 µM (SK-OV-3) [%],inhibition of growth at 10 µM (OVCAR-8) [%],also measured
C/C(=N/O)c1ccc(NC(=O)Cn2nc(C(F)(F)F)nc2N)cc1,5.28,10.5,20.3,31,5.46,11.9,13.1,15.9,26,29,15.1,5.31,14.8,5.27,23.3,9.21,25.6,11.3,3.53,20.5,inhibition of growth at 10 µM (NCI-H23): 4.46%; inhibition of growth at 10 µM (TK-10): 14.3%; inhibition of growth at 10 µM (UACC-62): 5.39%; inhibition of growth at 10 µM (NCI-H322M): 4.32%; inhibition of growth at 10 µM (RPMI-8226): 4.65%; inhibition of growth at 10 µM (NCI-H226): 12.9%; inhibition of growth at 10 µM (HCT-116): 8.65%
C/C(=N/O)c1ccc(NC(=O)Cn2nc(-c3ccccc3)nc2N)cc1,5.36,6.77,15.8,30,5.06,13.9,5.32,5.58,7.41,32,15.4,5.24,22.5,5.33,11.5,17.7,34,8.76,15.2,15.3,inhibition of growth at 10 µM (NCI-H23): 3.98%; inhibition of growth at 10 µM (T47D): 23%; inhibition of growth at 10 µM (HOP-92): 5.82%; inhibition of growth at 10 µM (SNB-19): 3.56%; inhibition of growth at 10 µM (A498): 19.6%; inhibition of growth at 10 µM (Hs-578T): 7.41%; inhibition of growth at 10 µM (NCI-H226): 3.91%
CC(=O)c1ccc(NC(=O)Cn2nc(-c3ccc(Cl)cc3)nc2N)cc1,5.17,19.9,20.3,28,5.13,10.4,4.03,7.32,7.98,22,20.6,5.09,6.47,5.16,16.5,15.1,19.8,5.94,22,15.4,inhibition of growth at 10 µM (MCF7): 5.48%; inhibition of growth at 10 µM (T47D): 21.6%; inhibition of growth at 10 µM (HOP-92): 7.76%; inhibition of growth at 10 µM (UACC-62): 6.29%; inhibition of growth at 10 µM (NCI-H322M): 5.69%; inhibition of growth at 10 µM (SNB-19): 8.53%; inhibition of growth at 10 µM (RPMI-8226): 3.17%; inhibition of growth at 10 µM (Hs-578T): 6.29%; inhibition of growth at 10 µM (HCT-116): 4.68%
CC(=O)c1ccc(NC(=O)Cn2nc(C(F)(F)F)nc2N)cc1,5.43,6.78,10.6,21,5.35,16,,,15.4,20,13.7,5.33,12.5,5.42,7.46,9.94,14.6,,7.02,13.3,inhibition of growth at 10 µM (TK-10): 5.17%; inhibition of growth at 10 µM (T47D): 10.8%; inhibition of growth at 10 µM (SNB-19): 4.37%; inhibition of growth at 10 µM (Hs-578T): 7.42%; inhibition of growth at 10 µM (NCI-H226): 8.52%
CC(=O)c1ccc(NC(=O)Cn2nc(-c3ccccc3)nc2N)cc1,5.01,,,,5.02,,,,,,,5.07,,5.08,,,,,,,
